Literature values as cited in US7115281B2, “Processes for the preparation of oral dosage formulations of modafinil” (Ranbaxy Laboratories Limited, priority 2002, dated 2006).

Experiments:
[1] = not given; remark: listed apart in the source

In the case of `NC(=O)C[S+]([O-])C(c1ccccc1)c1ccccc1` (centres unmarked) [modafinil], the “Stability at higher temperatures” value is listed as “unstable” and the Solubility in water [1] is listed as “less than 1 mg/ml”.
